# Source: patent publication US8735601B2, “Pentamethine cyanine fluorescent dye with N-substituting at β-position of conjugated chain” (Dalian University of Technology, priority 2010, dated 2014)
# Experiments:
# [1] = Absorption and emission spectra of dyes in different solvents; type: physicochemical; parameters: key to Δλ1 / Δλ2: Stokes shift in nm; ε1 (molar extinction coefficient) / ε2 (molar extinction coefficient): scale not given here; settings: for Δλ1: Stokes shift to absorption peak 1; for Δλ2: Stokes shift to absorption peak 2
# Text: In the present invention, compounds IIa to IIg were synthesized based on compound II, and their spectral properties were investigated. Compared with the traditional pentamethine cyanine dye, for the novel pentamethine cyanine dye with N-substituting at β-position (deviated position), it was observed that, evident blue shift of absorption and emission wavelengths occurred, absorption wavelength blue shifted even largely than that of emission wavelength, absorption spectrum and fluorescence spectrum were no longer mirror-symmetric and had two absorption peaks and a single emission peak, and larger Stokes shift (minimum 60 and 150 nm, and maximum 90 and 230 nm) appeared.
# [2] = Measurement of fluorescence quantum yield (Rhodamine B in ethanol as reference); type: physicochemical
smiles,measurement,setting,value
CCN(CC)C(=C\C1=[N+](CC)c2ccccc2C1(C)C)/C=C/C=C1/N(CC)c2ccccc2C1(C)C [Dye IId],Δλ1,[1]; solvent DCM,88
same,Δλ1,[1]; solvent DMSO,92
same,Δλ1,[1]; solvent Ethanol,94
same,Δλ1,[1]; solvent Methanol,96
same,Δλ1,[1]; solvent THF,87
same,Δλ1,[1]; solvent Water,99
same,Δλ2,[1]; solvent DCM,158
same,Δλ2,[1]; solvent DMSO,140
same,Δλ2,[1]; solvent Ethanol,157
same,Δλ2,[1]; solvent Methanol,158
same,Δλ2,[1]; solvent THF,154
same,Δλ2,[1]; solvent Water,152
same,ε1 (molar extinction coefficient),[1]; solvent DCM,4.3 cm^−1M
same,ε2 (molar extinction coefficient),[1]; solvent DCM,2.9 cm^−1M
same,λabs1,[1]; solvent DCM,523 nm
same,λbs2,[1]; solvent DCM,453 nm
same,λem,[1]; solvent DCM,611 nm
same,ε1 (molar extinction coefficient),[1]; solvent DMSO,3.9 cm^−1M
same,ε2 (molar extinction coefficient),[1]; solvent DMSO,2.7 cm^−1M
same,λabs1,[1]; solvent DMSO,508 nm
same,λbs2,[1]; solvent DMSO,460 nm
same,λem,[1]; solvent DMSO,600 nm
same,ε1 (molar extinction coefficient),[1]; solvent Ethanol,3.5 cm^−1M
same,ε2 (molar extinction coefficient),[1]; solvent Ethanol,2.5 cm^−1M
same,λabs1,[1]; solvent Ethanol,516 nm
same,λbs2,[1]; solvent Ethanol,453 nm
same,λem,[1]; solvent Ethanol,610 nm
same,ε1 (molar extinction coefficient),[1]; solvent Methanol,3.9 cm^−1M
same,ε2 (molar extinction coefficient),[1]; solvent Methanol,2.8 cm^−1M
same,λabs1,[1]; solvent Methanol,513 nm
same,λbs2,[1]; solvent Methanol,451 nm
same,λem,[1]; solvent Methanol,609 nm
same,ε1 (molar extinction coefficient),[1]; solvent THF,4.1 cm^−1M
same,ε2 (molar extinction coefficient),[1]; solvent THF,2.1 cm^−1M
same,λabs1,[1]; solvent THF,517 nm
same,λbs2,[1]; solvent THF,450 nm
same,λem,[1]; solvent THF,604 nm
same,ε1 (molar extinction coefficient),[1]; solvent Water,2.9 cm^−1M
same,ε2 (molar extinction coefficient),[1]; solvent Water,2.3 cm^−1M
same,λabs1,[1]; solvent Water,501 nm
same,λbs2,[1]; solvent Water,448 nm
same,λem,[1]; solvent Water,600 nm
same,Φ1 (fluorescence quantum yield),[2]; solvent DCM,0.124
same,Φ2 (fluorescence quantum yield),[2]; solvent DCM,0.085
same,Φ1 (fluorescence quantum yield),[2]; solvent DMSO,0.004
same,Φ2 (fluorescence quantum yield),[2]; solvent DMSO,0.004
same,Φ1 (fluorescence quantum yield),[2]; solvent Ethanol,0.009
same,Φ2 (fluorescence quantum yield),[2]; solvent Ethanol,0.009
same,Φ1 (fluorescence quantum yield),[2]; solvent Methanol,0.005
same,Φ2 (fluorescence quantum yield),[2]; solvent Methanol,0.005
same,Φ1 (fluorescence quantum yield),[2]; solvent THF,0.030
same,Φ2 (fluorescence quantum yield),[2]; solvent THF,0.022
same,Φ1 (fluorescence quantum yield),[2]; solvent Water,0.001
same,Φ2 (fluorescence quantum yield),[2]; solvent Water,0.001
CCN1/C(=C/C=C/C(=C/C2=[N+](CC)c3ccccc3C2(C)C)NCc2ccccc2)C(C)(C)c2ccccc21 [Dye IIe],Δλ1,[1]; solvent DCM,81
same,Δλ1,[1]; solvent DMSO,92
same,Δλ1,[1]; solvent Ethanol,89
same,Δλ1,[1]; solvent Methanol,88
same,Δλ1,[1]; solvent THF,86
same,Δλ1,[1]; solvent Water,101
same,Δλ2,[1]; solvent DCM,185
same,Δλ2,[1]; solvent DMSO,174
same,Δλ2,[1]; solvent Ethanol,179
same,Δλ2,[1]; solvent Methanol,174
same,Δλ2,[1]; solvent THF,170
same,Δλ2,[1]; solvent Water,188
same,ε1 (molar extinction coefficient),[1]; solvent DCM,2.8 cm^−1M
same,ε2 (molar extinction coefficient),[1]; solvent DCM,2.1 cm^−1M
same,λabs1,[1]; solvent DCM,522 nm
same,λbs2,[1]; solvent DCM,418 nm
same,λem,[1]; solvent DCM,603 nm
same,ε1 (molar extinction coefficient),[1]; solvent DMSO,2.6 cm^−1M
same,ε2 (molar extinction coefficient),[1]; solvent DMSO,2.3 cm^−1M
same,λabs1,[1]; solvent DMSO,515 nm
same,λbs2,[1]; solvent DMSO,433 nm
same,λem,[1]; solvent DMSO,607 nm
same,ε1 (molar extinction coefficient),[1]; solvent Ethanol,2.8 cm^−1M
same,ε2 (molar extinction coefficient),[1]; solvent Ethanol,2.3 cm^−1M
same,λabs1,[1]; solvent Ethanol,519 nm
same,λbs2,[1]; solvent Ethanol,429 nm
same,λem,[1]; solvent Ethanol,608 nm
same,ε1 (molar extinction coefficient),[1]; solvent Methanol,2.7 cm^−1M
same,ε2 (molar extinction coefficient),[1]; solvent Methanol,2.2 cm^−1M
same,λabs1,[1]; solvent Methanol,517 nm
same,λbs2,[1]; solvent Methanol,431 nm
same,λem,[1]; solvent Methanol,605 nm
same,ε1 (molar extinction coefficient),[1]; solvent THF,2.9 cm^−1M
same,ε2 (molar extinction coefficient),[1]; solvent THF,2.2 cm^−1M
same,λabs1,[1]; solvent THF,510 nm
same,λbs2,[1]; solvent THF,426 nm
same,λem,[1]; solvent THF,596 nm
same,ε1 (molar extinction coefficient),[1]; solvent Water,2.3 cm^−1M
same,ε2 (molar extinction coefficient),[1]; solvent Water,1.9 cm^−1M
same,λabs1,[1]; solvent Water,516 nm
same,λbs2,[1]; solvent Water,429 nm
same,λem,[1]; solvent Water,617 nm
same,Φ1 (fluorescence quantum yield),[2]; solvent DCM,0.106
same,Φ2 (fluorescence quantum yield),[2]; solvent DCM,0.075
same,Φ1 (fluorescence quantum yield),[2]; solvent DMSO,0.009
same,Φ2 (fluorescence quantum yield),[2]; solvent DMSO,0.008
same,Φ1 (fluorescence quantum yield),[2]; solvent Ethanol,0.019
same,Φ2 (fluorescence quantum yield),[2]; solvent Ethanol,0.017
same,Φ1 (fluorescence quantum yield),[2]; solvent Methanol,0.008
same,Φ2 (fluorescence quantum yield),[2]; solvent Methanol,0.007
same,Φ1 (fluorescence quantum yield),[2]; solvent THF,0.085
same,Φ2 (fluorescence quantum yield),[2]; solvent THF,0.075
same,Φ1 (fluorescence quantum yield),[2]; solvent Water,0.003
same,Φ2 (fluorescence quantum yield),[2]; solvent Water,0.001
CCN1/C(=C/C=C/C(=C/C2=[N+](CC)c3ccccc3C2(C)C)N(Cc2ccccc2)Cc2ccccc2)C(C)(C)c2ccccc21 [Dye IIf],Δλ1,[1]; solvent DCM,87
same,Δλ1,[1]; solvent DMSO,90
same,Δλ1,[1]; solvent Ethanol,87
same,Δλ1,[1]; solvent Methanol,90
same,Δλ1,[1]; solvent THF,86
same,Δλ1,[1]; solvent Water,93
same,Δλ2,[1]; solvent DCM,162
same,Δλ2,[1]; solvent DMSO,151
same,Δλ2,[1]; solvent Ethanol,163
same,Δλ2,[1]; solvent Methanol,166
same,Δλ2,[1]; solvent THF,156
same,Δλ2,[1]; solvent Water,171
same,ε1 (molar extinction coefficient),[1]; solvent DCM,3.1 cm^−1M
same,ε2 (molar extinction coefficient),[1]; solvent DCM,2.1 cm^−1M
same,λabs1,[1]; solvent DCM,528 nm
same,λbs2,[1]; solvent DCM,453 nm
same,λem,[1]; solvent DCM,615 nm
same,ε1 (molar extinction coefficient),[1]; solvent DMSO,3.3 cm^−1M
same,ε2 (molar extinction coefficient),[1]; solvent DMSO,2.2 cm^−1M
same,λabs1,[1]; solvent DMSO,521 nm
same,λbs2,[1]; solvent DMSO,460 nm
same,λem,[1]; solvent DMSO,611 nm
same,ε1 (molar extinction coefficient),[1]; solvent Ethanol,3.4 cm^−1M
same,ε2 (molar extinction coefficient),[1]; solvent Ethanol,2.5 cm^−1M
same,λabs1,[1]; solvent Ethanol,528 nm
same,λbs2,[1]; solvent Ethanol,452 nm
same,λem,[1]; solvent Ethanol,615 nm
same,ε1 (molar extinction coefficient),[1]; solvent Methanol,3.4 cm^−1M
same,ε2 (molar extinction coefficient),[1]; solvent Methanol,2.5 cm^−1M
same,λabs1,[1]; solvent Methanol,527 nm
same,λbs2,[1]; solvent Methanol,451 nm
same,λem,[1]; solvent Methanol,617 nm
same,ε1 (molar extinction coefficient),[1]; solvent THF,4.0 cm^−1M
same,ε2 (molar extinction coefficient),[1]; solvent THF,2.0 cm^−1M
same,λabs1,[1]; solvent THF,523 nm
same,λbs2,[1]; solvent THF,453 nm
same,λem,[1]; solvent THF,609 nm
same,ε1 (molar extinction coefficient),[1]; solvent Water,2.5 cm^−1M
same,ε2 (molar extinction coefficient),[1]; solvent Water,1.9 cm^−1M
same,λabs1,[1]; solvent Water,525 nm
same,λbs2,[1]; solvent Water,447 nm
same,λem,[1]; solvent Water,618 nm
same,Φ1 (fluorescence quantum yield),[2]; solvent DCM,0.113
same,Φ2 (fluorescence quantum yield),[2]; solvent DCM,0.105
same,Φ1 (fluorescence quantum yield),[2]; solvent DMSO,0.004
same,Φ2 (fluorescence quantum yield),[2]; solvent DMSO,0.005
same,Φ1 (fluorescence quantum yield),[2]; solvent Ethanol,0.010
same,Φ2 (fluorescence quantum yield),[2]; solvent Ethanol,0.009
same,Φ1 (fluorescence quantum yield),[2]; solvent Methanol,0.005
same,Φ2 (fluorescence quantum yield),[2]; solvent Methanol,0.004
same,Φ1 (fluorescence quantum yield),[2]; solvent THF,0.036
same,Φ2 (fluorescence quantum yield),[2]; solvent THF,0.034
same,Φ1 (fluorescence quantum yield),[2]; solvent Water,0.001
same,Φ2 (fluorescence quantum yield),[2]; solvent Water,0.002
